Earlier results in article PMC4457528, “Identification of Novel Small Molecule Inhibitors of Oncogenic RET Kinase” (PLoS ONE, 2015).

Assays:
[1] = tested on: RET Y806C; design: method as in PMID 15184865, PMID 19029224; conditions: cited from earlier work
[2] = tested on: RET and its gate-keeper mutants; conditions: cited from earlier work

Structure (SMILES)	fold increase of in vitro IC50 dose for RET by Y806C [1] [fold]	inhibition of RET and its gate-keeper mutants [2]
COc1cc2c(Nc3ccc(Br)cc3F)ncnc2cc1OCC1CCN(C)CC1 [vandetanib]	10	
Cc1ccc(C(=O)Nc2ccc(CN3CCN(C)CC3)c(C(F)(F)F)c2)cc1C#Cc1cnc2cccnn12 [ponatinib]		potently inhibits
